Source: ChEMBL document CHEMBL2413072, “Synthesis and in vitro anticancer studies of novel C-2 arylidene congeners of lantadenes” (2013)

Legend:
Format in all cases: functional
[1] = system: NCI-H460; test: Growth inhibition of human NCI-H460 cells assessed as growth inhibition at 10 uM by sulforhodamine B assay; details: read-out: GI
[2] = system: Malme-3M; test: Growth inhibition of human MALME-3M cells assessed as cell growth at 10 uM by sulforhodamine B assay; details: read-out: Activity
[3] = system: SF-539; test: Growth inhibition of human SF539 cells assessed as cell growth at 10 uM by sulforhodamine B assay; details: read-out: Activity
[4] = system: A498; test: Growth inhibition of human A498 cells assessed as cell growth at 10 uM by sulforhodamine B assay; details: read-out: Activity
[5] = system: UACC-62; test: Growth inhibition of human UACC62 cells assessed as cell growth at 10 uM by sulforhodamine B assay; details: read-out: Activity
[6] = system: HCT-15; test: Growth inhibition of human HCT15 cells assessed as growth inhibition at 10 uM by sulforhodamine B assay; details: read-out: GI
[7] = system: MDA-MB-231; test: Growth inhibition of human MDA-MB-231 cells assessed as cell growth at 10 uM by sulforhodamine B assay; details: read-out: Activity
[8] = system: T47D; test: Growth inhibition of human T47D cells assessed as growth inhibition at 10 uM by sulforhodamine B assay; details: read-out: GI
[9] = system: RPMI-8226; test: Growth inhibition of human RPMI8226 cells assessed as growth inhibition at 10 uM by sulforhodamine B assay; details: read-out: GI
[10] = system: MOLT-4; test: Growth inhibition of human MOLT4 cells assessed as cell growth at 10 uM by sulforhodamine B assay; details: read-out: Activity
[11] = system: CCRF-CEM; test: Growth inhibition of human CCRF-CEM cells assessed as growth inhibition at 10 uM by sulforhodamine B assay; details: read-out: GI
[12] = system: SW-620; test: Growth inhibition of human SW620 cells assessed as growth inhibition at 10 uM by sulforhodamine B assay; details: read-out: GI
[13] = system: UO-31; test: Growth inhibition of human UO31 cells assessed as cell growth at 10 uM by sulforhodamine B assay; details: read-out: Activity
[14] = system: SK-MEL-2; test: Growth inhibition of human SK-MEL-2 cells assessed as growth inhibition at 10 uM by sulforhodamine B assay; details: read-out: GI
[15] = system: SF-295; test: Growth inhibition of human SF295 cells assessed as cell growth at 10 uM by sulforhodamine B assay; details: read-out: Activity
[16] = system: IGROV-1; test: Growth inhibition of human IGROV1 cells assessed as cell growth at 10 uM by sulforhodamine B assay; details: read-out: Activity
[17] = system: HOP-92; test: Growth inhibition of human HOP92 cells assessed as cell growth at 10 uM by sulforhodamine B assay; details: read-out: Activity
[18] = system: LOX IMVI; test: Growth inhibition of human LOXIMVI cells assessed as cell growth at 10 uM by sulforhodamine B assay; details: read-out: Activity
[19] = system: SNB-75; test: Growth inhibition of human SNB75 cells assessed as cell growth at 10 uM by sulforhodamine B assay; details: read-out: Activity
[20] = system: M14; test: Growth inhibition of human M14 cells assessed as cell growth at 10 uM by sulforhodamine B assay; details: read-out: Activity
[21] = system: M14; test: Growth inhibition of human M14 cells assessed as growth inhibition at 10 uM by sulforhodamine B assay; details: read-out: GI
[22] = system: TK-10; test: Growth inhibition of human TK10 cells assessed as growth inhibition at 10 uM by sulforhodamine B assay; details: read-out: GI
[23] = system: HOP-62; test: Growth inhibition of human HOP62 cells assessed as cell growth at 10 uM by sulforhodamine B assay; details: read-out: Activity
[24] = system: SK-MEL-5; test: Growth inhibition of human SK-MEL-5 cells assessed as growth inhibition at 10 uM by sulforhodamine B assay; details: read-out: GI
[25] = system: RXF 393; test: Growth inhibition of human RXF393 cells assessed as cell growth at 10 uM by sulforhodamine B assay; details: read-out: Activity
[26] = system: HCT-116; test: Growth inhibition of human HCT116 cells assessed as cell growth at 10 uM by sulforhodamine B assay; details: read-out: Activity
[27] = system: SF-268; test: Growth inhibition of human SF268 cells assessed as cell growth at 10 uM by sulforhodamine B assay; details: read-out: Activity
[28] = Growth inhibition of human NCI-ADR-RES cells assessed as cell growth at 10 uM by sulforhodamine B assay; details: read-out: Activity
[29] = system: LOX IMVI; test: Growth inhibition of human LOXIMVI cells assessed as growth inhibition at 10 uM by sulforhodamine B assay; details: read-out: GI
[30] = system: NCI-H460; test: Growth inhibition of human NCI-H460 cells assessed as cell growth at 10 uM by sulforhodamine B assay; details: read-out: Activity
[31] = Growth inhibition of human EKVX cells assessed as cell growth at 10 uM by sulforhodamine B assay; details: read-out: Activity
[32] = system: OVCAR-5; test: Growth inhibition of human OVCAR5 cells assessed as growth inhibition at 10 uM by sulforhodamine B assay; details: read-out: GI
[33] = system: RPMI-8226; test: Growth inhibition of human RPMI8226 cells assessed as cell growth at 10 uM by sulforhodamine B assay; details: read-out: Activity
[34] = Growth inhibition of human HCC2998 cells assessed as cell growth at 10 uM by sulforhodamine B assay; details: HCC 2998, read-out: Activity
[35] = system: ACHN; test: Growth inhibition of human ACHN cells assessed as cell growth at 10 uM by sulforhodamine B assay; details: read-out: Activity
[36] = system: OVCAR-4; test: Growth inhibition of human OVCAR4 cells assessed as growth inhibition at 10 uM by sulforhodamine B assay; details: read-out: GI
[37] = system: RXF 393; test: Growth inhibition of human RXF393 cells assessed as growth inhibition at 10 uM by sulforhodamine B assay; details: read-out: GI
[38] = system: COLO 205; test: Growth inhibition of human COLO205 cells assessed as growth inhibition at 10 uM by sulforhodamine B assay; details: read-out: GI
[39] = system: SK-MEL-5; test: Growth inhibition of human SK-MEL-5 cells assessed as cell growth at 10 uM by sulforhodamine B assay; details: read-out: Activity
[40] = system: SNB-75; test: Growth inhibition of human SNB75 cells assessed as growth inhibition at 10 uM by sulforhodamine B assay; details: read-out: GI
[41] = system: Malme-3M; test: Growth inhibition of human MALME-3M cells assessed as growth inhibition at 10 uM by sulforhodamine B assay; details: read-out: GI
[42] = system: OVCAR-3; test: Growth inhibition of human OVCAR3 cells assessed as growth inhibition at 10 uM by sulforhodamine B assay; details: read-out: GI
[43] = system: K562; test: Growth inhibition of human K562 cells assessed as cell growth at 10 uM by sulforhodamine B assay; details: read-out: Activity
[44] = system: PC-3; test: Growth inhibition of human PC3 cells assessed as cell growth at 10 uM by sulforhodamine B assay; details: read-out: Activity
[45] = system: HL-60(TB); test: Growth inhibition of human HL-60(TB) cells assessed as growth inhibition at 10 uM by sulforhodamine B assay; details: read-out: GI
[46] = system: NCI-H322M; test: Growth inhibition of human NCI-H322M cells assessed as growth inhibition at 10 uM by sulforhodamine B assay; details: read-out: GI
[47] = Growth inhibition of human Hs 578T cells assessed as growth inhibition at 10 uM by sulforhodamine B assay; details: read-out: GI
[48] = system: SR; test: Growth inhibition of human SR cells assessed as growth inhibition at 10 uM by sulforhodamine B assay; details: read-out: GI
[49] = system: MDA-MB-435; test: Growth inhibition of human MDA-MB-435 cells assessed as cell growth at 10 uM by sulforhodamine B assay; details: read-out: Activity

Compound `CC1(C)C[C@@H](O)[C@]2(C(=O)O)CC[C@]3(C)C(=CC[C@@H]4[C@@]5(C)CCC(=O)C(C)(C)[C@@H]5CC[C@]43C)[C@@H]2C1` has an inhibition of growth at 10 µM [1] of under 10%, a growth at 10 µM [2] of 87.1% and a growth at 10 µM [3] of 106%. It also gave a growth at 10 µM [4] of 91.2%, a growth at 10 µM [5] of 80.5% and an inhibition of growth at 10 µM [6] of 24.6%. For the same compound, the growth at 10 µM [7] was 91.3%, the inhibition of growth at 10 µM [8] was 19.2% and the inhibition of growth at 10 µM [9] was 29.8%. It also gave a growth at 10 µM [10] of 78.7%, an inhibition of growth at 10 µM [11] of 12.5% and an inhibition of growth at 10 µM [12] of under 10%. It also gave a growth at 10 µM [13] of 86.1%, an inhibition of growth at 10 µM [14] of under 10% and a growth at 10 µM [15] of 80.7%. The growth at 10 µM [16] was 92.3%, the growth at 10 µM [17] was 75.4% and the growth at 10 µM [18] was 93.2%. It also gave a growth at 10 µM [19] of 101%, a growth at 10 µM [20] of 93.4% and an inhibition of growth at 10 µM [21] of under 10%. For the same compound, the inhibition of growth at 10 µM [22] was under 10%, the growth at 10 µM [23] was 88.7% and the inhibition of growth at 10 µM [24] was 12.2%. The growth at 10 µM [25] was 112%, the growth at 10 µM [26] was 78.8% and the growth at 10 µM [27] was 106%. The growth at 10 µM [28] was 100%, the inhibition of growth at 10 µM [29] was under 10% and the growth at 10 µM [30] was 94.7%. It also gave a growth at 10 µM [31] of 99.2%, an inhibition of growth at 10 µM [32] of under 10% and a growth at 10 µM [33] of 70.2%. For the same compound, the growth at 10 µM [34] was 91%, the growth at 10 µM [35] was 91.8% and the inhibition of growth at 10 µM [36] was 14.1%. It also gave an inhibition of growth at 10 µM [37] of under 10%, an inhibition of growth at 10 µM [38] of under 10% and a growth at 10 µM [39] of 87.8%. It also gave an inhibition of growth at 10 µM [40] of under 10%, an inhibition of growth at 10 µM [41] of 12.9% and an inhibition of growth at 10 µM [42] of under 10%. For the same compound, the growth at 10 µM [43] was 76.8%, the growth at 10 µM [44] was 59.3% and the inhibition of growth at 10 µM [45] was 24.8%. For the same compound, the inhibition of growth at 10 µM [46] was under 10%, the inhibition of growth at 10 µM [47] was under 10% and the inhibition of growth at 10 µM [48] was 16.3%. It also gave a growth at 10 µM [49] of 102%.

With `CC1(C)C[C@@H](O)[C@]2(C(=O)O)CC[C@]3(C)C(=CC[C@@H]4[C@@]5(C)C/C(=C\C=C\c6ccccc6)C(=O)C(C)(C)[C@@H]5CC[C@]43C)[C@@H]2C1` the inhibition of growth at 10 µM [1] was 54.2%, the growth at 10 µM [2] was 84.5% and the growth at 10 µM [3] was 91.9%. For the same compound, the growth at 10 µM [4] was 95.7%, the growth at 10 µM [5] was 50.4% and the inhibition of growth at 10 µM [6] was 64.8%. For the same compound, the growth at 10 µM [7] was 68.9%, the inhibition of growth at 10 µM [8] was 62.4% and the inhibition of growth at 10 µM [9] was 84.4%. The growth at 10 µM [10] was 44.4%, the inhibition of growth at 10 µM [11] was 80.1% and the inhibition of growth at 10 µM [12] was 44.2%. It also gave a growth at 10 µM [13] of 40.3%, an inhibition of growth at 10 µM [14] of 35.4% and a growth at 10 µM [15] of 23.5%. It also gave a growth at 10 µM [16] of 60.8%, a growth at 10 µM [17] of 49.2% and a growth at 10 µM [18] of 61.4%. It also gave a growth at 10 µM [19] of 72.1%, a growth at 10 µM [20] of 72.9% and an inhibition of growth at 10 µM [21] of 27.1%. The inhibition of growth at 10 µM [22] was 11.7%, the growth at 10 µM [23] was 62.8% and the inhibition of growth at 10 µM [24] was 26.3%. It also gave a growth at 10 µM [25] of 84.1%, a growth at 10 µM [26] of 17.5% and a growth at 10 µM [27] of 70.7%. It also gave a growth at 10 µM [28] of 76.2%, an inhibition of growth at 10 µM [29] of 38.6% and a growth at 10 µM [30] of 45.8%. For the same compound, the growth at 10 µM [31] was 39.4%, the inhibition of growth at 10 µM [32] was under 10% and the growth at 10 µM [33] was 15.6%. It also gave a growth at 10 µM [34] of 82.8%, a growth at 10 µM [35] of 41.9% and an inhibition of growth at 10 µM [36] of 45.8%. The inhibition of growth at 10 µM [37] was 15.9%, the inhibition of growth at 10 µM [38] was under 10% and the growth at 10 µM [39] was 73.7%. The inhibition of growth at 10 µM [40] was 27.9%, the inhibition of growth at 10 µM [41] was 15.5% and the inhibition of growth at 10 µM [42] was 42.7%. For the same compound, the growth at 10 µM [43] was 32.4%, the growth at 10 µM [44] was 41.5% and the inhibition of growth at 10 µM [45] was 61.2%. The inhibition of growth at 10 µM [46] was 28.1%, the inhibition of growth at 10 µM [47] was 41.6% and the inhibition of growth at 10 µM [48] was 37.4%. The growth at 10 µM [49] was 72.3%.
